# Read-outs that look alike come from different tables or passages of the source.
# Key:
# [1] = Stability in Japan Pharmacopoeia 1st solution (pH 1.2) at 37° C., with or without stabilizer (TLC densitometry, 232 nm); format: physicochemical; conditions: for improvement of stability compared with control, 30 minutes: value at 30 minutes; for stability in 1st solution (in words): 1st solution pH 1.2, no stabilizer; for stability with tri-sodium citrate (in words): 150-300 mg of tri-sodium citrate; for stability with calcium phosphate (in words): 150-400 mg of calcium phosphate; for stability with glycine (in words): 150-900 mg of glycine; for stability with L-aspartic acid monosodium salt (in words): 200-500 mg of Asp.Na; for stability with monosodium glutamate (in words): 200-500 mg of Glu.Na; for degraded at 0.5 h: read-out: decomposites (balance), 30 minutes; for remaining at 0.5 h: read-out: residual amount after contact with 1st solution, 30 minutes; for degraded at 1 h / remaining at 1 h: 60 minutes; for stability with a larger amount of glycine (in words): larger amount of glycine (up to 900 mg)
# Source text: The stabilizers showing pH 3-10 used in the invention may be substances having a buffering or antacid action and showing pH 3-10, preferably 5.5-6.5. These are, for example, neutral amino acids or their basic salts, basic salts of acidic amino acids, basic amino acids,basic salts of organic carboxylic acids,basic salts of polybasic organic carboxylic acids, basic salts of uronic acid or inorganic salt antacids. The neutral amino acids or basic salts thereof include glycine, alanine, aminobutyric acid, proline, leucine, isoleucine, methionine, threonine, serine, valine, or their aluminium salts, for example aluminium glycinate. Among these, glycine, alanine and aluminium glycinate, both of which show pH 5.5-6.5, are preferable. The basic salts of acidic amino acid include monobasic salts such as a monosodium, monopotassium or magnesium salt of glutaminic or aspartic acid. Among these monobasic salts, monosodium glutamate or monosodium aspartate is preferable. The basic amino acids include arginine, glutamine, asparagine, citrulin, tryptophane and histidine. Especially, histidine is preferable. The basic salts of monobasic organic carboxylic acid include basic salts such as sodium, potassium, magnesium or aluminium salts of saturated monobasic organic carboxylic acids such as acetic acid and propionic acid, of unsaturated monobasic organic acids such as acrylic acid, crotonic acid and vinylacetic acid, and of other monobasic organic acids such as lactic acid, pyruvic acid, glyceric acid and acetoacetic acid. The basic salts of polybasic organic carboxylic acid include mono-, di- or tri-sodium, potassium, magnesium, calcium or aluminium salts of saturated polybasic organic carboxylic acids such as oxalic acid, malonic acid, succinic acid, glutaric acid, adipic acid and pimelic acid, of unsaturated polybasic organic carboxylic acids such as maleic acid and fumaric acid, and of other polybasic organic carboxylic acids such as meso-oxalic acid, malic acid, oxalacetic acid and citric acid. Among these, trisodium citrate is preferable. The basic salts of uric acids include sodium salts of glucuronic acid, galacturonic acid or their polymers such as alginic acid or peptic acid and dihydroxyaluminium aminoacetate sodium alginate. The inorganic salt antacids include calcium hydrogenphosphate, disodium hydrogenphosphate, dipotassium hydrogenphosphate, magnesium hydrogenphosphate, calcium carbonate, sodium carbonate, potassium carbonate, sodium hydrogen carbonate, aluminium carbonate, magnesium carbonate, potassium metasilicate, magnesium aluminate metasilicate, sodium metasilicate, synthetic aluminium silicate, magnesium silicate, aluminium silicate, magnesium aluminate silicate, magnesium-bismuth aluminate silicate, magnesium oxide, alumina-magnesium hydroxide, magnesium peroxide, magnesium hydroxide, aluminium hydroxide, synthetic hydrotarphite, aluminium phosphate and others. Especially, calcium phosphate and magnesium phosphate are preferable. Each of these stabilizers may be used alone or in the form of a mixture. […] A method for stabilization of 16-membered ring macrolide antibiotics of the present invention will be described in detail. The afore-mentioned various 16-membered ring macrolide antibiotics, for example 9-hydroxy 16-membered ring macrolides such as midecamycin, 3"-propionylleucomycin A5 and josamycin and 9-acyloxy 16-membered ring macrolides such as 9,3"-diacetylmidecamycin and 9-propionyljosamycin show extremely poor residual rates when added to an acidic solution of the Japanese Pharmacopoeia lst liquid (pH 1.2) and allowed to stand. That is, the 9hydroxy 16-membered ring maclorides decompose in a short time to by-produce their iso, demycarosyl and/or isodemycarosyl forms. The 9-acyloxy 16-membered ring macrolides decompose, too, to by-produce their 9-deacyl, 9-deacyl-iso, demycarosyl, 9-deacyl-demycarosyl or 9-deacyl-iso-demycarosyl forms. […]
# [2] = Elution rate in aqueous solutions of various pH and physiological saline solution; format: physicochemical; conditions: for elution rate, pH 1.2, 2 and 3: initial pH 1.2, 2 and 3; for elution rate, pH 1.2, 2 and 3 / elution rate, pH 4 and 5 / elution rate, physiological saline solution: 37° C.; for elution rate, pH 4 and 5: initial pH 4 and 5
# Procedure: After 40 ml of Japan Pharmacopoeia 1st solution (pH 1.2) was placed in a vessel whose temperature was kept constant in a thermostat at 37° C., 200 mg of TMS-19-Q was added and the mixture was stirred by a magnetic stirrer. […] Then, Japan Pharmacopoeia 2nd solution were mixed with the 1st solution, and by using aqueous solutions whose pH values were adjusted to be 2, 3, 4 and 5 and a physiological saline solution, respectively, elution rate of each thereof was measured.
# To 40 ml of Japan Pharmacopoeia 1st solution (pH 1.2), 120 ml of water was added, and after the solution was kept in a constant temperature bath controlled at 37° C., 200 mg of midecamycin was added, and the mixture was stirred by a magnetic stirrer. Then, 5 ml aliquots of the solution were sampled in a lapse of time (at 5 minutes, 15 minutes and 30 minutes), and absorbances were measured (wavelength: 232 nm) and elution rate were calculated. Then, Japan Pharmacopoeia 1st solution and Japan Pharmacopoeia 2nd solution were mixed to prepare aqueous solutions whose pH values were adjusted to be 2, 3, 4 and 5, respectively. By using these solutions and physiological saline solution, the elution rates were calculated following the same procedures as those indicated above.
# By following the same procedures and under the same conditions as those of Example 31, elution rates of 9-propionyljosamycin were measured.
# By following the same procedures and under the same conditions as those of Example 31, elution rates of josamycin were measured.
# In addition to the conditions of Example 31, Japan Pharmacopoeia 1st solution and Japan Parmacopoeia 2nd solution were mixed to prepare an aqueous solution having pH of 2.5, and following the same procedures as those of Example 31, elution rates of 9,3"-diacetylmidecamycin were measured.
# [3] = jp 1st solution, 1st solution pH 1.2, 37° C., 30 minutes, no stabilizer
# [4] = jp 1st solution, 1st solution pH 1.2, 37° C., no stabilizer, read-out: decomposites (balance), 60 minutes
# [5] = jp 1st solution, 1st solution pH 1.2, 37° C., no stabilizer, read-out: residual amount after contact with 1st solution, 60 minutes
# [6] = solutions whose pH is equal to or less than 4.37
# [7] = 1st solution pH 1.2, 37° C., 30 minutes, no stabilizer
# [8] = jp 1st solution, pH 1.2, 1st solution pH 1.2, 37° C., 30 minutes, no stabilizer
"improvement of stability compared with control, 30 minutes ([1]; 150 mg of glycine) [%]",stability in 1st solution (in words) [1],stability with tri-sodium citrate (in words) ([1]; 1st solution),stability with calcium phosphate (in words) ([1]; 1st solution),stability with glycine (in words) ([1]; 1st solution),stability with L-aspartic acid monosodium salt (in words) ([1]; 1st solution),stability with monosodium glutamate (in words) ([1]; 1st solution),"degraded at 0.5 h [1, 3] [%]","remaining at 0.5 h [1, 3] [%]","degraded at 1 h [1, 4] [%]","remaining at 1 h [1, 5] [%]",stability with a larger amount of glycine (in words) [1],elution rate in physiological saline solution (summary) ([2]; general description),"elution rate, pH 1.2, 2 and 3 ([2]; after 15-minute stirring) [%]","elution rate, pH 4 and 5 ([2]; after 15-minute stirring)",elution rate in pH 1.2-3 acidic aqueous solution (summary) ([2]; general description),elution rate in pH 4-5 weak acidic aqueous solution (summary) ([2]; general description),"elution rate, physiological saline solution ([2]; after 15-minute stirring) [%]","time within which elution was nearly completed [2, 6] [min]",SMILES,further results
60,extremely unstable,very much enhanced,extremely enhanced,stabilized well,very much enhanced,very much enhanced,50.6,49.4,75.5,24.5,hardly decomposed,less than 15%,–,–,–,–,–,–,"CCC(=O)OC1CC(=O)OC(C)C/C=C/C=C/C(OC(C)=O)C(C)CC(CC=O)C(OC2OC(C)C(OC3CC(C)(OC(C)=O)C(OC(=O)CC)C(C)O3)C(N(C)C)C2O)C1OC (stereo not drawn) [9,3""-diacetylmidecamycin]","elution rate, pH 1.2, 2 and 2.5 ([2]; initial pH 1.2, 2 and 2.5, after 15-minute stirring): ≥ 95%; elution rate, pH 3 ([2]; initial pH 3, after 15-minute stirring): 50%; elution rate, pH 4 and 5 and physiological saline solution ([2]; initial pH 4 and 5 and physiological saline, after 15-minute stirring): 5-10%; elution rate in pH 1.2-2.5 acidic aqueous solution (summary) ([2]; pH 1.2-2.5, general description): more than 95%; time within which elution was nearly completed ([2]; solutions whose final pH is equal to or less than 3.77): ≤ 15 min"
–,extremely unstable,very much enhanced,extremely enhanced,stabilized well,very much enhanced,very much enhanced,55.8,44.2,84.1,15.9,hardly decomposed,less than 15%,≥ 95,45-55%,more than 95%,less than 50%,10,≤ 15,CCC(=O)O[C@H]1/C=C/C=C/C[C@@H](C)OC(=O)C[C@@H](OC(C)=O)[C@H](OC)[C@@H](O[C@@H]2O[C@H](C)[C@@H](O[C@H]3C[C@@](C)(O)[C@@H](OC(=O)CC(C)C)[C@H](C)O3)[C@H](N(C)C)[C@H]2O)[C@@H](CC=O)C[C@H]1C [9-propionyljosamycin],"improvement of stability compared with control, 60 minutes ([1]; 150 mg of glycine, value at 60 minutes): improved by four times; degraded at 25 min ([1]; jp 1st solution, pH 1.2, 1st solution, about 25 minutes, read-out: decomposition in contact with 1st solution): 50%"
30,–,–,–,–,–,–,–,–,–,–,–,less than 15%,≥ 95,50-60%,more than 95%,less than 50%,15,–,CO[C@@H]1[C@@H](O[C@@H]2O[C@H](C)[C@@H](O[C@H]3C[C@@](C)(O)[C@@H](OC(=O)CC(C)C)[C@H](C)O3)[C@H](N(C)C)[C@H]2O)[C@@H](CC=O)C[C@@H](C)[C@@H](O)/C=C/C=C/C[C@@H](C)OC(=O)C[C@H]1OC(C)=O [josamycin],"degraded at 1 h ([1]; jp 1st solution, pH 1.2, decomposites (balance)): 53.3%; remaining at 1 h ([1]; jp 1st solution, pH 1.2, residual amount after contact with 1st solution): 46.7%; time within which elution was nearly completed ([2]; solutions whose pH is equal to or less than 4.35): ≤ 15 min"
50,extremely unstable,extremely well stabilized,extremely well stabilized,stabilized well,very much enhanced,very much enhanced,–,–,–,–,hardly decomposed,less than 15%,≥ 95,45-60%,more than 95%,less than 50%,15,≤ 15,CCC(=O)OC1CC(=O)OC(C)C/C=C/C=C/C(O)C(C)CC(CC=O)C(OC2OC(C)C(OC3CC(C)(O)C(OC(=O)CC)C(C)O3)C(N(C)C)C2O)C1OC (stereo not drawn) [midecamycin],"decomposites (balance), 30 minutes [1, 7]: 42.6%; residual amount after contact with 1st solution, 30 minutes [1, 7]: 57.4%; degraded at 0.5 h [1, 8]: 55%; remaining at 0.5 h [1, 8]: 45%; degraded at 1 h ([1]; jp 1st solution, pH 1.2, 1st solution pH 1.2, 37° C., no stabilizer, read-out: decomposites (balance), 60 minutes): 65%; remaining at 1 h ([1]; jp 1st solution, pH 1.2, 1st solution pH 1.2, 37° C., no stabilizer, read-out: residual amount after contact with 1st solution, 60 minutes): 35%"

# Reference: patent US4716153A, “Stable oral preparation of macrolide antibiotics and method for stabilizing the same” (priority 1982, dated 1987)
